# Where “and” joins values, the source holds several entries; their conditions need not be identical. Equal entries are not always repeated.
# Columns and labels:
# wtrFABP5 = wtrFABP5 (Homo sapiens, UniProt Q01469); test: DAUDA displacement assay (ligand binding); settings: for relative level of fluorescence intensity after adding ligand to the DAUDA-wtrFABP5 complex: 10 μM ligand, 2 μM DAUDA, 3 μM wtrFABP5, complex without ligand 2.65 ± 0.14; for Ki: displacement of 2 μM DAUDA from 3 μM wtrFABP5, ligand 0.5–20 μM, Ki = IC50/1+(DAUDA/Kd), read-out: inhibition constant Ki (binding affinity)
# Sequence of wtrFABP5 (Q01469 whole entry): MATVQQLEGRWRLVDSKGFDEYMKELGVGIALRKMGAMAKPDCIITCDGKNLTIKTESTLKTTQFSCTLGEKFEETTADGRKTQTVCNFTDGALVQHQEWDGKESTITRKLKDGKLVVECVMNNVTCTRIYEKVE
# Source text: The fatty acid-binding ability of wtrFABP5 was examined by using the DAUDA displacement assay which used fatty acids and different chemical compounds to replace the fluorescently labelled fatty acid analogue DAUDA (Cayman). […] For each experiment, the fluorescence data were normalized to the peak fluorescent intensity, and then subtracted from the data of samples without protein. The data were fitted by nonlinear regression using GraphPad Prism software to a saturation binding curve model to estimate the apparent dissociation constant (Kd) and maximal fluorescence intensity (Bmax). […] The Ki of each ligand was determined using the equation Ki = IC50/1+ (DAUDA concentration /Kd).
# [1] = tested on: p-PPARγ1 and p-PPARγ2 in 22RV1 cells; test: Western blot of phosphorylated PPARγ in 22RV1 cells; type: cell-based, human; settings: for effect on levels of p-PPARγ1 and 2: 22RV1, 24 h
# [2] = tested on: p-PPARγ1 and p-PPARγ2 in PC3-M cells; test: Western blot of phosphorylated PPARγ in PC3-M cells; type: cell-based, human; settings: for reduction in level of p-PPARγ1 / reduction in level of p-PPARγ2: untreated set at 1
# [3] = tested on: PC3-M cells inoculated into the right flank; test: Subcutaneous nude mouse tumorigenicity assay; type: in vivo, nude mice
# Procedure: PC3-M cells (2 × 10^6) in 200 μL PBS were subcutaneously injected into the right flank region of the mouse (6–8 week old) to test the suppressive effect of the inhibitors on tumorigenicity. In the first round, 3 groups of mice (8 each) were used: 1) control with PBS; 2) 1mg/kg SBFI26, injected from the 1st day after cell inoculation; 3) 1mg/kg SBFI26, injected from the 7th day after cell inoculation. In the second round, 2 groups of mice (5 each) were used and at 7 days after the cell inoculation, each group was subjected to different intra-tumoural injections: 1) control with PBS; 2) PPARγ antagonist (GW9662, 1mg/kg) (Sigma). The injections were repeated every 2 days for 30 days, tumour size was measured every 3–4 days and the volume calculated by the formula of L× W×H×0.5236 [56]. Work was performed in accordance with UKCCCR guidelines under Home Office License PPL40/2963.
# PPARγ = tested on: PPARγ; set-up: method as in PMID 23236415; settings: cited from earlier work
# [4] = tested on: fatty acid uptake of PC3-M cells; test: Fatty acid uptake assay with BODIPY-labelled fatty acid; type: cell-based, human; settings: 30 min; for cells with BODIPY-labelled fatty acid uptake (M2): control 92.9%
# Procedure: Assay for fatty acid uptake was performed using red fluorescence-labelled BODIPY [57]. The fluorescence intensity from cells before and 30 minutes after adding BODIPY was measured to determine fatty acid uptake. In inhibition and competition experiments, different concentrations of unlabelled lead compound SBFI26 (50–200 μM) with the same concentration of labelled BODIPY were added directly to the highly malignant PC3-M cells.
# PC3-M cells [5] = test: Soft-agar colony formation assay; type: cell-based, human; settings: 100 μM
# Procedure: Low melting agarose was seeded in 6-well plates and 5 × 10^4 cells/well layered on agar, followed by 200 μl of medium alone or medium with FABP5 inhibitor SBFI26. Colonies larger than 300 μm in each well were counted 2 weeks later in a similar way to that described previously.
# PC3-M cells [6] = test: Wound healing migration assay; type: cell-based, human; settings: 100 μM, 24 h; control gap closure 94%
# Procedure: Wound healing migration assay was carried out to evaluate the effect of SBFI26 on the migratory rate of PC3-M cells. Wounds were generated by scratching the monolayer cells with a blue pipette tip. The floating cells were removed by washing with PBS and inhibitors were added to the culture medium. The wound was photographed under the microscope at 0, 12 and 24 h after treatment and the wound widths were assessed by quantitative analysis using ImageJ software.
# PC3-M cells [7] = test: Proliferation MTT assay; type: cell-based, human; settings: 100 μM
# Procedure: (§1) PC3-M cells (5 × 10^4) were plated in triplicate in 96 well plates and incubated overnight. Cells were treated with different concentrations of SBFI26 (25–125 μM) for 24 h. Cell viability was assessed using MTT assay, as described previously. The anti-proliferative effect of the best concentration for SBFI26 was determined after 6 days of treatment.
# PC3-M cells [8] = test: Boyden chamber invasion assay; type: cell-based, human; settings: 100 μM, 24 h
# Procedure: PC3-M cells in serum-free medium were seeded in the upper Boyden chamber (BD Biosciences) in triplicate at a density of 2.5 × 10^4 cells per well in serum-free medium. Complete medium was added to the lower chambers. After 3 hours of incubation, 100 μM SBFI26 was added to the upper chambers. After 24 h of incubation, cells that invaded the lower chambers were stained with crystal violet and counted with a cell counter.
# [9] = tested on: PC3-M-Luc8 cells implanted orthotopically into the prostate gland; test: Orthotopic nude mouse assay of tumorigenicity and metastasis; type: in vivo, Balb/c nude mice
# Procedure: PC3-M cells were transfected with the pGL4.50 [luc2/CMV/Hygro] vector (Promega) using FuGene HD transfection reagent (Promega) following the manufacturer’s instructions. Individual colonies were isolated by ring cloning and 3 colonies that stably-expressed the highest bioluminescence signals were identified using D-luciferin (Promega) with a Varioskan Flash Reader (Thermo Scientific). Association of the luminescence intensity with the number of cells was assessed by an IVIS imaging system (Perkin Elmer). Cells (5 × 10^5) from PC3-M- luc2 colony were suspended in 30 μL PBS and orthotopically implanted into the dorsal prostate of 33 male Balb/c nude mice (Charles River, UK) (8–10 weeks old), as described previously. One week later, tumour-bearing mice were divided into 2 groups (8 each) and subjected to the following intraperitoneally injections: 1) control with PBS; 2) SBFI26, 1mg/kg. Injections were repeated every two days for 25 days and the metastatic loci were monitored weekly using the IVIS after mice were subcutaneously injected with D-luciferin (150 mg/kg). Bioluminescence images was analysed using the Living Imagine software (Xenogen) and the measurement recorded was based on total photons/second (p/s) within each defined region of interest.
# PC3-M cells [10] = test: Cell viability MTT assay; type: cell-based, human; settings: 24 h
# Procedure: as §1
molecule,measurement,setting,value
CCCCC/C=C\C/C=C\CCCCCCCC(=O)O [linoleic acid],relative level of fluorescence intensity after adding ligand to the DAUDA-wtrFABP5 complex,wtrFABP5,1.37 ± 0.07
same,Ki,wtrFABP5,1570 nM
wtrFABP5: FABP5 protein (wtrFABP5) used as binding target and as treatment of 22RV1 cells,effect on levels of p-PPARγ1 and 2,[1],significantly increased levels of both p-PPARγ1 and 2
CN(CCOc1ccc(CC2SC(=O)NC2=O)cc1)c1ccccn1 (centres unmarked) [rosiglitazone],effect on levels of p-PPARγ isoforms,[2]; 24 hours,significantly increased levels of both p-PPARγ isoforms
O=C(Nc1ccccc1)c1cc([N+](=O)[O-])ccc1Cl [GW9662],reduction in level of p-PPARγ1,[2]; 24 hours,52%
same,reduction in level of p-PPARγ2,[2]; 24 hours,51%
same,suppression of tumour size vs control,[3]; GW9662 1 mg/kg from day 7,67%
same,average size of tumours,"[3]; GW9662 1 mg/kg intra-tumoural from day 7, n = 5, control 774 ± 202 mm^3",252 ± 84 mm^3
CN(C)c1cccc2c(S(=O)(=O)NCCCCCCCCCCC(=O)O)cccc12 [DAUDA],Kd,"wtrFABP5; 3 μM wtrFABP5 titrated with DAUDA 0.4–3 μM, ex 345/em 530 nm, read-out: apparent dissociation constant (Kd) of DAUDA to wtrFABP5",1860 ± 160 nM
same,maximal fluorescence intensity (Bmax),wtrFABP5; DAUDA titration to 3 μM wtrFABP5,3.579
"O=C(O)C1C(c2ccccc2)C(C(=O)Oc2cccc3ccccc23)C1c1ccccc1 (stereo not drawn) [SBFI26, α-truxillic acid 1-naphthyl mono-ester]",activity at PPARγ,PPARγ,weak agonist of PPARγ
same,unstained cells (M1),[4]; 50 μM,20.76%
same,cells with BODIPY-labelled fatty acid uptake (M2),[4]; 50 μM,79.24%
same,unstained cells (M1),[4]; 100 μM,32.31%
same,cells with BODIPY-labelled fatty acid uptake (M2),[4]; 100 μM,67.7% and 67.69%
same,unstained cells (M1),[4]; 150 μM,30.88%
same,cells with BODIPY-labelled fatty acid uptake (M2),[4]; 150 μM,69.12%
same,unstained cells (M1),[4]; 200 μM,30.79%
same,cells with BODIPY-labelled fatty acid uptake (M2),[4]; 200 μM,69.21%
same,inhibition of colony formation,"PC3-M cells [5]; 2 weeks, vs control",100%
same,number of colonies formed in soft agar,"PC3-M cells [5]; after 2 weeks, control 124 ± 18",0
same,average reduction in both PPARγ activated isoforms,[2],about 50%
same,reduction in level of p-PPARγ1,[2]; 24 hours,44%
same,reduction in level of p-PPARγ2,[2]; 24 hours,46%
same,reduction in wound size,PC3-M cells [6],19%
same,reduction of proliferation rate,PC3-M cells [7],17 times
same,suppression of invasion,PC3-M cells [8]; vs control,95.5%
same,mean number of invaded cells,PC3-M cells [8]; control 22 ± 3,1 ± 1
same,suppression of tumour volume vs control,[3]; SBFI26 1 mg/kg for 31 days,52%
same,average tumour volume on termination,"[3]; SBFI26 1 mg/kg for 31 days, n = 8, control 627 ± 120 mm^3",302 ± 86 mm^3
same,suppression in metastasis incidence compared to control,"[9]; 25 days, 1 mg/kg i.p.",50%
same,mice that produced visceral metastasis (number/total),"[9]; 25 days, 1 mg/kg i.p., control 7/7",4/8
same,mice that produced visceral metastasis,"[9]; 25 days, 1 mg/kg i.p., control 100%",50%
same,metastasis sites by histological staining,"[9]; H&E, control: all mice, mainly liver and lung",half of the mice developed liver metastases with no metastasis in the lung
same,bioluminescence signal,"[9]; day 25, 1 mg/kg intraperitoneally, control 31.5 × 10^8",6.66 × 10^8 p/sec/cm^2
same,reduction in cell numbers,PC3-M cells [10]; 100 μM,26%
same,concentration producing maximum suppression of viability,PC3-M cells [10]; MTT,100 µM
same,average reduction in both PPARγ activated isoforms,[1]; 22RV1,33.5%
same,effect on levels of p-PPARγ1 and 2,[1],suppressed the levels of both p-PPARγ isoforms
CCCCCCCC/C=C\CCCCCCCC(=O)O [oleic acid],relative level of fluorescence intensity after adding ligand to the DAUDA-wtrFABP5 complex,wtrFABP5,1.68 ± 0.09
same,Ki,wtrFABP5,1890 nM

# Source: paper PMC5458187, “Inhibitor SBFI26 suppresses the malignant progression of castration-resistant PC3-M cells by competitively binding to oncogenic FABP5” (Oncotarget, 2017)
